Results taken from paper PMC11111408, “Concurrent inhibition of oncogenic and wild-type RAS-GTP for cancer therapy” (Nature, 2024).
Where two headings read alike, the source gives them in different places.

Test system: panel of 183 cancer cell lines
Test: Cell panel of 183 cancer cell lines, viability (CTG) at Crown Bioscience
Assay type: cell-based
Conditions: Homo sapiens
Description: The panel consisted of cell lines with any substitution at position 12 of KRAS, NRAS or HRAS (KRAS(G12X), NRAS(G12X), HRAS(G12X)); substitutions in KRAS, NRAS or HRAS at any position other than 12, 13 and 61 (KRAS(other/VUS), NRAS(other/VUS), HRAS(other/VUS)); other oncogenic mutations in the RAS pathway (ABL1, ALK, ARAF, BRAF, CBL, EGFR, ERBB2, ERBB3, ERBB4, ERRFI1, FGFR1, FGFR2, FGFR3, FGFR4, FLT3, HRAS, IGF1R, JAK2, KIT, MAP2K1, MAP2K2, MAPK1, MET, NF1, NRAS, NTRK1, NTRK2, NTRK3, PDGFRA, PTPN11, RAC1, RAF1, RASA1, RET, RIT1, ROS1 and SOS1); and no oncogenic mutations in the RAS pathway. […] Cells were incubated for 120 h, and cell viability was determined using the CellTiter-Glo Luminescent Cell Viability Assay (CTG) (Promega, G7572) according to the manufacturer’s instructions.

With `CCn1c(-c2cc(N3CCN(C4CC4)CC3)cnc2[C@H](C)OC)c2c3cc(ccc31)-c1csc(n1)C[C@H](NC(=O)[C@H]1[C@@H]3COC[C@@H]31)C(=O)N1CCC[C@H](N1)C(=O)OCC(C)(C)C2` [RMC-7977] the EC50 (786-0, read-out: RMC-7977 EC50 (M), 786O, RAS pathway WT, Kidney) was > 1e-06 M, the EC50 (A 172, read-out: RMC-7977 EC50 (M), A172, RAS pathway WT, Brain&Nerves) was 1.19e-07 M and the EC50 (A549, read-out: RMC-7977 EC50 (M), A549, KRAS G12S, Lung) was 5.13e-09 M. For the same molecule, the EC50 (A-375, read-out: RMC-7977 EC50 (M), A375, BRAF V600E, Skin) was > 1e-06 M, the EC50 (A-427, read-out: RMC-7977 EC50 (M), A427, KRAS G12D, Lung) was 4.79e-09 M and the EC50 (AN3-CA, read-out: RMC-7977 EC50 (M), AN3CA, RAS pathway WT, Uterus) was 2.87e-08 M. The EC50 (ASPC1, read-out: RMC-7977 EC50 (M), ASPC1, KRAS G12D, Pancreas) was 2.63e-09 M, the EC50 (AU565, read-out: RMC-7977 EC50 (M), AU565, RAS pathway WT, Breast) was > 1e-06 M and the EC50 (BRAF^MUT Other cell lines, read-out: median EC50) was 7.54e-08 M. The EC50 (BRAF^V600E cell lines, read-out: median EC50) was > 1e-06 M, the EC50 (BXPC-3, read-out: RMC-7977 EC50 (M), BXPC3, BRAF mut other, Pancreas) was 2.97e-08 M and the EC50 (CAL-51, read-out: RMC-7977 EC50 (M), CAL51, NRAS Y137H, Breast) was 2.88e-08 M. For the same molecule, the EC50 (CAL-62, read-out: RMC-7977 EC50 (M), CAL62, KRAS G12R, HN/Thyroid) was 2.29e-09 M, the EC50 (CAPAN-1, read-out: G12X (62), RMC-7977 EC50 (CTG), CAPAN1, KRAS G12X) was 1.41e-09 M and the EC50 (CAPAN-1, read-out: RMC-7977 EC50 (M), CAPAN1, KRAS G12V, Pancreas) was 1.41e-09 M. For the same molecule, the EC50 (CFPAC-1, read-out: G12X (62), RMC-7977 EC50 (CTG), CFPAC1, KRAS G12X) was 2.95e-09 M, the EC50 (CFPAC-1, read-out: RMC-7977 EC50 (M), CFPAC1, KRAS G12V, Pancreas) was 2.95e-09 M and the EC50 (CHL-1, read-out: RMC-7977 EC50 (M), CHL1, RAS pathway WT, Skin) was 2.61e-08 M. For the same molecule, the EC50 (CHP-212, read-out: RMC-7977 EC50 (M), CHP212, NRAS Q61K, Brain&Nerves) was 1.58e-09 M, the EC50 (COLO 201, read-out: RMC-7977 EC50 (M), COLO201, BRAF V600E, Large intestine/Colorectum) was > 1e-06 M and the EC50 (COR-L23, read-out: G12X (62), RMC-7977 EC50 (CTG), CORL23, KRAS G12X) was 2.75e-09 M. For the same molecule, the EC50 (COR-L23, read-out: RMC-7977 EC50 (M), CORL23, KRAS G12V, Lung) was 2.75e-09 M, the EC50 (Calu-1, read-out: RMC-7977 EC50 (M), CALU1, KRAS G12C, Lung) was 6.61e-10 M and the EC50 (Calu-6, read-out: RMC-7977 EC50 (M), CALU6, KRAS Q61K, Lung) was 1.86e-09 M. For the same molecule, the EC50 (Capan-2, read-out: G12X (62), RMC-7977 EC50 (CTG), CAPAN2, KRAS G12X) was 3.31e-10 M, the EC50 (Capan-2, read-out: RMC-7977 EC50 (M), CAPAN2, KRAS G12V, Pancreas) was 3.31e-10 M and the EC50 (CoC1, read-out: RMC-7977 EC50 (M), COC1, KRAS G12D, Ovary) was 1.58e-09 M. It also gave an EC50 (DLD-1, read-out: RMC-7977 EC50 (M), DLD1, KRAS G13D, Large intestine/Colorectum) of 4.57e-08 M, an EC50 (DMS-53, read-out: RMC-7977 EC50 (M), DMS53, RAS pathway WT, Lung) of 7.15e-08 M and an EC50 (DMS-114, read-out: RMC-7977 EC50 (M), DMS114, RAS pathway WT, Lung) of 7.09e-07 M. The EC50 (DU-145, read-out: RMC-7977 EC50 (M), DU145, RAS pathway WT, Prostate) was 1.72e-08 M, the EC50 (DV-90, read-out: RMC-7977 EC50 (M), DV90, KRAS G13D, Lung) was 2.95e-08 M and the EC50 (EBC-1, read-out: RMC-7977 EC50 (M), EBC1, MET amp, Lung) was 1.13e-09 M. The EC50 (FTC-133, read-out: RMC-7977 EC50 (M), FTC133, NF1 LOF, HN/Thyroid) was > 1e-06 M, the EC50 (HCC44, read-out: RMC-7977 EC50 (M), HCC44, KRAS G12C, Lung) was 5.25e-09 M and the EC50 (HCC70, read-out: RMC-7977 EC50 (M), HCC70, RAS pathway WT, Breast) was > 1e-06 M. It also gave an EC50 (HCC78, read-out: RMC-7977 EC50 (M), HCC78, ROS1 fusion, Lung) of 7.49e-09 M, an EC50 (HCC827, HCC827, RTKMUT/fusion, read-out: EC50) of 3.03e-09 M and an EC50 (HCC827, read-out: RMC-7977 EC50 (M), HCC827, EGFR mut, Lung) of 3.03e-09 M. For the same molecule, the EC50 (HCC1187, read-out: RMC-7977 EC50 (M), HCC1187, RAS pathway WT, Breast) was 2.7e-07 M, the EC50 (HCC1428, read-out: RMC-7977 EC50 (M), HCC1428, RAS pathway WT, Breast) was > 1e-06 M and the EC50 (HCC1500, read-out: RMC-7977 EC50 (M), HCC1500, RAS pathway WT, Breast) was 5.01e-08 M. For the same molecule, the EC50 (HCC2279, RTKMUT/fusion, read-out: EC50) was 4.52e-09 M, the EC50 (HCC2935, read-out: RMC-7977 EC50 (M), HCC2935, EGFR mut, Lung) was 2.39e-09 M and the EC50 (HCC4006, HCC4006, RTKMUT/fusion, read-out: EC50) was 2.39e-09 M. It also gave an EC50 (HCC4006, read-out: RMC-7977 EC50 (M), HCC4006, EGFR mut, Lung) of 2.39e-09 M, an EC50 (HCT-8, read-out: RMC-7977 EC50 (M), HCT8, KRAS G13D, Large intestine/Colorectum) of 3.02e-08 M and an EC50 (HCT-15, read-out: RMC-7977 EC50 (M), HCT15, KRAS G13D, Large intestine/Colorectum) of 2.75e-07 M. The EC50 (HCT-116, read-out: RMC-7977 EC50 (M), HCT116, KRAS G13D, Large intestine/Colorectum) was 6.61e-09 M, the EC50 (HEC-1-A, read-out: RMC-7977 EC50 (M), HEC1A, KRAS G12D, Uterus) was 1.74e-09 M and the EC50 (HGC-27, read-out: RMC-7977 EC50 (M), HGC27, NF1 LOF, Stomach) was > 1e-06 M. It also gave an EC50 (HPAC, read-out: RMC-7977 EC50 (M), HPAC, KRAS G12D, Pancreas) of 1.1e-08 M, an EC50 (HPAF-II, read-out: RMC-7977 EC50 (M), HPAFII, KRAS G12D, Pancreas) of 3.24e-09 M and an EC50 (HT-1080, read-out: RMC-7977 EC50 (M), HT1080, NRAS Q61K, Soft tissue) of 2.34e-09 M. The EC50 (HepG2, read-out: RMC-7977 EC50 (M), HEPG2, NRAS Q61L, Liver) was 6.76e-09 M, the EC50 (Hs766T, read-out: RMC-7977 EC50 (M), HS766T, KRAS Q61H, Pancreas) was > 1e-06 M and the EC50 (Hs-578T, read-out: RMC-7977 EC50 (M), HS578T, HRAS G12D, Breast) was 1.45e-08 M. The EC50 (HuCCT-1, read-out: RMC-7977 EC50 (M), HUCCT1, KRAS G12D, Liver/Bile duct) was 5.13e-09 M, the EC50 (HuP-T4, read-out: RMC-7977 EC50 (M), HUPT4, KRAS G12V, Pancreas) was 2.51e-09 M and the EC50 (JHH7, read-out: RMC-7977 EC50 (M), JHH7, RAS pathway WT, Liver) was 8.08e-08 M.
